Assay results as given in patent US5196438A, “Amino acid derivatives” (Hoffmann-La Roche Inc., priority 1989, dated 1993).
Like-named read-outs stand apart in the source and are kept apart here.

How the values were obtained:
[1] = test system: HTLV-III (strain RF) grown in C8166 cells; assay: Activity against HIV (p24 antigen capture assay in infected C8166 cells); assay type: cell-based; settings: Human immunodeficiency virus 1, concentration that produces 50% protection, 72 hours, viral protein 24 antigen capture, read-out: I50 Activity against HIV
Protocol: This assay uses HTLV-III (strain RF) grown in C8166 cells (a human CD4^+ T lymphoblastoid line) using RPM1 1640 medium with bicarbonate buffer, antibiotics and 10% fetal bovine serum.
A suspension of cells is infected with ten times the TCD50 of virus and adsorption allowed to proceed for 90 minutes at 37° C. The cells are washed three times with medium. The test is carried out in 6 ml tissue culture tubes, each tube containing 2×10^5 infected cells in 1.5 ml of medium. Test compounds are dissolved in either aqueous medium or dimethyl sulphoxide, according to solubility, and a 15 μl solution of the substance added. The cultures are incubated at 37° C. for 72 hours in a humidified atmosphere containing 5% carbon dioxide in air. The cultures are then centrifuged and an aliquot of the supernatant solubilized with Nonidet P40 and subjected to an antigen capture assay which uses a primary antiserum with particular reactivity against the viral protein 24 and a horseradish peroxidase detection system. Color generation is measured spectrophotometrically and plotted against the concentration of test substance. The concentration that produces 50% protection is determined. (I50).

HIV protease = HIV protease (Human immunodeficiency virus type 1 group M subtype B, UniProt P04585); assay: In vitro inhibition of HIV protease (spectrophotometric assay of N-terminal proline from peptide substrate cleavage); assay type: biochemical; settings: citrate buffer pH 5.5, 37° C.
Protocol: HIV protease was expressed in E. coli and partially purified from soluble extracts of the bacterium by ammonium sulphate fractionation (0-30%). […] Cleavage of the substrate was quantified by measuring the production of H-Pro-Ile isobutylamide by the spectrophotometric assay of N-terminal proline.
1.25 mM of substrate were dissolved in 125 mM of citrate buffer (pH 5.5) containing 0.125 mg/ml of Tween 20. […] The solution was heated in a water bath and then the pigmented residues were re-dissolved in 1 ml of 1% pyrogallol in 33% water in acetone (wt./vol./vol.). The optical density of the solution was measured spectrophotometrically at 599 nm.

| Compound | IC50 [1] | IC50 (HIV protease; substrate S^1: succinyl-Ser-Leu-Asn-Tyr-Pro-Ile isobutylamide, read-out: I50 Inhibition of HIV protease, S^1) | IC50 (HIV protease; substrate S^2: succinyl-Val-Ser-Gln-Asn-Phe-Pro-Ile isobutylamide, read-out: I50 Inhibition of HIV protease, S^2) |
| --- | --- | --- | --- |
| CC(C)(C)NC(=O)[C@@H]1C[C@@H]2CCCC[C@@H]2CN1C[C@@H](O)[C@H](Cc1ccccc1)NC(=O)[C@H](CC(N)=O)NC(=O)c1ccc2ccccc2n1 [2-Quinolylcarbonyl, N-tert.butyl-decahydro-2-[2(R)-hydroxy-4-phenyl-3(S)-[[N-(2-quinolylcarbonyl)-L-asparaginyl]amino]butyl]-(4aS,8aS)-isoquinoline-3(S)-carboxamide] | 2 nM | – | – |
| CC(C)(C)NC(=O)[C@@H]1C[C@@H]2CCCC[C@@H]2CN1C[C@@H](O)[C@H](Cc1ccccc1)NC(=O)[C@H](CC(N)=O)NC(=O)OCc1ccccc1 [Benzyloxycarbonyl, 2-[3(S)-[[N-(benzyloxycarbonyl)-L-asparaginyl]amino]-2(R)-hydroxy-4-phenylbutyl]-N-tert.butyl-decahydro-(4aS,8aS)-isoquinoline-3(S)-carboxamide] | 20 nM | < 24 nM | < 2.7 nM |
